The results in this text go back to PubChem BioAssay (NCI).

Experiment in all cases: growth of human tumour cells (NCI), 48 h
Assay [1] has as its system RPMI-8226 leukemia.
Assay [2] concerns MALME-3M melanoma.
Assay [3] deals with A549 NSCLC.
In assay [4] the test system is HOP-62 NSCLC.
Assay [5] deals with NCI-H23 lung.
Assay [6] relates to OVCAR-4 ovarian.
The subject of assay [7] is PC-3 prostate.
Assay [8] relates to U251 CNS.
Assay [9] has as its system MDA-MB-231 breast.
For assay [10], the system named is SR leukemia.

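Grown in 96-well plates, cells were treated for 48 hours with each compound at five concentrations. Insufficient inhibition: endpoint recorded as highest concentration tested. GI50: concentration for 50% inhibition of growth. At the TGI there is no net growth.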

With `O=C(Cc1nc2ccccc2s1)Nc1cccc(C(F)(F)F)c1`, the TGI was determined as 28.7 µM in assay [1]; 30.8 µM in [2]; 45.4 µM in assay [3]; 32.7 µM in [4]; 30.2 µM in assay [5]; 30.3 µM in [6].

Turning to `O=CC[C@H]1CCc2ccccc2C12CCC(=O)CC2`, the TGI in assay [1], in [2], in assay [3], in assay [4] and in assay [6] was more than 100 µM throughout.

As for `O=C(NP(=O)(N1CC1)N1CC1)c1cc(I)ccc1I`, the TGI in assay [1] was more than 100 µM; in assay [7] it was more than 100 µM; in assay [2] it was more than 92 µM; in assay [3], more than 100 µM; in assay [8] it was more than 100 µM; in [4] it was more than 71.5 µM. The TGI was 56.1 µM in [5], more than 100 µM in assay [9] and more than 100 µM in assay [6].

As to `COc1cc(C2=C(C#Cc3ccccc3)COC2=O)cc(OC)c1OC`, the GI50 in assay [1] was 1.34 µM; in assay [7], 1.05 µM; in assay [2], 3.72 µM; in [3], 14.2 µM; in assay [8], 1.91 µM; in assay [4] it was 0.706 µM. For the same molecule, the results for the GI50 in assay [5], in assay [9] and in assay [6] were 5.51 µM, 0.492 µM and 34.2 µM, respectively. Also, the TGI in [1] was 4.05 µM; in assay [7], 20.3 µM; in [2], 33.1 µM; in assay [3], more than 100 µM; in assay [8] it was 5.61 µM; in assay [4] it was 2.61 µM. Also, the TGI in assay [5] was 12.8 µM; in [9], 2.95 µM; in assay [6] it was more than 100 µM.

As for `COc1cc2c3c(n(CCCI)c(=O)c2cc1OC)-c1cc2c(cc1C3=O)OCO2`, the GI50 is 3.76 µM in [1]; more than 100 µM in assay [7]; 7.57 µM in assay [2]; 2.5 µM in assay [3]; 1.21 µM in assay [8]; 4.45 µM in [4]. Further, the GI50 in assay [5] was 7.24 µM; in assay [9], 18.7 µM; in assay [6] it was 17.2 µM. The TGI in [1] was more than 100 µM; in [7], more than 100 µM; in assay [2] it was 54.6 µM; in assay [3], more than 100 µM; in assay [8], 17.5 µM; in [4] it was more than 100 µM. Moreover, the TGI in assay [5], in [9] and in assay [6] was more than 100 µM in each case.

For `Cc1cccc2c(=O)c3c(sc12)c(NCCNCCO)nc1ccccc13`, the GI50 in assay [1] was 1.81 µM; in [7] it was 1.3 µM; in assay [2] it was 1.65 µM; in [3], 1.47 µM; in [8], 1.56 µM; in [4] it was 1.28 µM. The GI50 in [5] is 1.58 µM; in assay [9], 1.23 µM; in [6], 1.75 µM. Besides, the TGI in assay [1] was found to be 3.88 µM; in [7] it was 2.73 µM; in [2], 3.18 µM; in [3], 3.19 µM; in assay [8] it was 3.09 µM; in assay [4], 2.87 µM. In addition, the results for the TGI in assay [5], in assay [9] and in [6] were 3.04 µM, 2.62 µM and 3.48 µM, respectively.

Regarding `Fc1ccccc1C1CC(c2ccc3ccccc3c2)=Nc2ccccc2S1` (stereo not drawn), the TGI in [2], in assay [10], in [3], in assay [8], in [4] and in [5] was more than 100 µM in each case. In addition, the TGI in [6] was more than 100 µM.

Take `CCNC(=O)c1cc2c(-c3cc(C(C)(C)O)ccc3Oc3c(C)cc(F)cc3C)cn(C)c(=O)c2[nH]1`: the GI50 in assay [1] is 0.605 µM; in assay [7], 2.42 µM; in [2], 2.15 µM; in assay [3], 2.1 µM; in assay [8], 2.09 µM; in assay [4], 0.914 µM. The GI50 in assay [5] is 1.89 µM; in assay [9] it was 1.08 µM; in assay [6], 1.84 µM. In addition, the TGI in [1] was 8.98 µM; in assay [7] it was 13.9 µM; in assay [2] it was 15.2 µM; in [3] it was 14.6 µM; in [8], 16.7 µM; in assay [4], 13.7 µM. Besides, the TGI in assay [5] is 10.7 µM; in [9] it was 15.9 µM; in assay [6], 16.6 µM.

On to `Cc1cc(N(CCNc2ccnc3cc(Cl)ccc23)Cc2ccco2)nc(Cl)n1`, for which the GI50 was 1.71 µM in assay [7]; 1.78 µM in assay [2]; 1.85 µM in assay [3]; 1.62 µM in assay [8]; 1.68 µM in assay [4]; 1.77 µM in assay [5]. The GI50 is 1.68 µM in assay [9] and 1.49 µM in assay [6]. Further, the TGI stood at 3.18 µM in assay [7]; 3.33 µM in [2]; 3.42 µM in assay [3]; 3.01 µM in assay [8]; 3.38 µM in assay [4]; 3.93 µM in [5]. For the same molecule, the TGI in assay [9] is 3.24 µM; in assay [6], 2.95 µM.

With `CCc1cccc(C(C)C)c1N1C(=O)C(=O)C(c2nc3ccccc3s2)C(=O)C1=O`, the TGI in assay [1] was more than 50 µM; in assay [2], more than 45.3 µM; in assay [3], more than 50 µM; in [8], more than 50 µM; in assay [4], more than 50 µM; in assay [5], more than 50 µM. The molecule further gave a TGI in assay [6] of more than 50 µM.

With `N#Cc1c(N)nc(N2CCOCC2)c(C#N)c1-c1cccnc1`, the GI50 in assay [1] was 45.5 µM; in assay [7], 33.5 µM; in assay [2] it was 37.2 µM; in assay [3] it was more than 100 µM; in assay [8], more than 100 µM; in [4] it was 24.9 µM. Also, the GI50 in [9] is 27.6 µM; in assay [6], 44.4 µM. The TGI in assay [1] is more than 100 µM; in [7], more than 100 µM; in [2] it was 91.4 µM; in assay [3], more than 100 µM; in assay [8], more than 100 µM; in assay [4], more than 100 µM. Besides, the TGI in assay [9] and in assay [6] was more than 100 µM throughout.

Regarding `CCCCCCCCCCCCCP(=O)(O)OCC`, the TGI in assay [2], in assay [3], in assay [8], in assay [4], in assay [5] and in [6] was more than 100 µM each time.

`C1=CC=C2NCCCNC3=CC=CC=CC3=NCCCN=C2C=C1`: the TGI in assay [1], in [3], in [8], in [4] and in assay [6] was more than 100 µM in each case.

As to `O=C(Cn1ccnc1[N+](=O)[O-])c1ccc(F)cc1`, the TGI in assay [1], in [2], in assay [3], in assay [8], in assay [4] and in [5] was more than 100 µM throughout. This molecule also had a TGI in assay [6] of more than 100 µM.

On to `COc1cc(OC)c(/C=C/c2cnc3ccccc3n2)c(OC)c1`, for which the TGI in assay [1], in assay [7], in assay [2], in assay [3], in assay [8] and in [4] was more than 10 µM in each case. Moreover, the TGI in [5], in assay [9] and in assay [6] was more than 10 µM throughout.

Consider `CCC(=O)c1c(NOC2OC(COC(C)=O)C(OC(C)=O)C(OC(C)=O)C2OC(C)=O)nc(OC)n(C)c1=O` (stereo not drawn), for which the TGI in [10], in assay [3], in assay [8], in assay [4], in [5] and in assay [6] was more than 100 µM each time.

For `COC(=O)c1c(N)n[nH]c1N`, the TGI in assay [1], in [10], in assay [3], in assay [8], in assay [4] and in [5] was more than 100 µM throughout. Further, the TGI in assay [6] is more than 100 µM.

In the case of `Nc1nc(-c2ccccc2)nc2c1[n+]([O-])c1ccccc1[n+]2[O-]`, the TGI in [1], in assay [7], in assay [2], in [3], in [8] and in assay [4] was more than 100 µM throughout. The TGI in assay [5] and in assay [9] was more than 100 µM throughout.

On to `O=[N+]([O-])c1cccc(-c2oc(C=Nc3ccccc3)c([N+](=O)[O-])c2-c2cccc([N+](=O)[O-])c2)c1`, for which the TGI in [1], in assay [2], in [3], in assay [8], in [4] and in assay [5] was more than 100 µM each time.

Turning to `O=C1c2ccccc2C(=O)c2c1ccc(C1C(=O)c3ccccc3C1=O)c2-c1c(C2C(=O)c3ccccc3C2=O)ccc2c1C(=O)c1ccccc1C2=O`, the TGI in assay [1], in assay [7], in assay [2], in assay [3], in assay [8] and in assay [4] was more than 100 µM throughout. Also, the TGI in assay [9] and in assay [6] was more than 100 µM each time.

As to `C=C1CCC2C(C)(C)CCC[C@]2(C)[C@H]1CO` (stereo partly drawn), the GI50 in assay [7] was 65.8 µM; in assay [3], 73.9 µM; in assay [8], 49 µM; in assay [4], more than 100 µM; in [5] it was 46.1 µM; in assay [9] it was 50.2 µM. Also, the TGI in assay [7], in assay [3], in assay [8], in [4], in assay [5] and in assay [9] was more than 100 µM each time.

Regarding `C=C1CC/C=C(\C)C(=O)C[C@@H]2[C@@H]1CC2(C)C`, the TGI in [1] was more than 100 µM; in assay [7], 26.1 µM; in assay [2], 10.5 µM; in assay [3], more than 56 µM; in assay [8], 49.5 µM; in assay [4] it was 31.1 µM. Further, the TGI in assay [5] came out at 15.4 µM; in [9] it was 28.6 µM; in [6], 6.48 µM.

For the molecule `CN(C)CCNC(=O)c1cccc2c1nc(-c1ccccc1)c1ccccc12`, the TGI is 15 µM in assay [3]; 18.4 µM in assay [8]; 18.5 µM in assay [4]; 20.1 µM in assay [5]; 17.7 µM in assay [6].

For the molecule `O=C(CCC(=O)C(C(=O)c1ccccc1)c1ccccc1)Nc1cccc(C(F)(F)F)c1` (stereo not drawn), the TGI in [1], in [2], in assay [3], in assay [8], in [5] and in assay [6] was more than 100 µM each time.

Consider `COc1ccc(/C(C#N)=C/c2ccc(OC)c(OC)c2)cc1`, for which the TGI in assay [1], in assay [7], in [2], in [3], in assay [8] and in [4] was more than 100 µM in each case. In addition, the TGI in [5], in assay [9] and in [6] was more than 100 µM throughout.

As for `CC1C[C@@H]2C(=O)NC(=O)[C@@H]2c2c1c1ccccc1n2C` (stereo partly drawn), the TGI in assay [1], in assay [2], in [3], in [8], in assay [4] and in [5] was more than 100 µM each time.

For `CN(C)c1ccc(Nc2cc(-c3cccc(OC(F)(F)F)c3)nc3ccc(N4CCCC4)cc23)cc1`, the GI50 in assay [1] was 1.87 µM; in assay [2], 1.66 µM; in assay [3], 1.7 µM; in assay [8], 1.74 µM; in assay [4] it was 1.67 µM; in assay [5], 2.06 µM. Besides, the GI50 is 1.76 µM in [9] and 1.98 µM in [6]. Moreover, the TGI came to 4.48 µM in [1]; 3.11 µM in [2]; 3.22 µM in assay [3]; 3.16 µM in assay [8]; 3.22 µM in assay [4]; 4.39 µM in assay [5]. The TGI is 3.23 µM in assay [9] and 3.77 µM in assay [6].
